Test results as given in patent US9573961B2, “Inhibitors of the renal outer medullary potassium channel” (Merck Sharp & Dohme Corp., priority 2012, dated 2017).

target: hROMK (hKir1.1) (Homo sapiens (Human), UniProt P48048); test: Thallium Flux Assay (ROMK channel functional thallium flux, FLIPR-Tetra); assay type: cell-based; conditions: HEK293 cells stably expressing hROMK (hKir1.1); read-out: Thallium Flux IC50
Description: Cell Culture Conditions—HEK293 cells stably expressing hROMK (hKir1.1) were grown at 37° C. in a 10% CO2 humidified incubator in complete growth media: Dulbecco's Modified Eagle Medium supplemented with non-essential amino acids, Penicillin/Streptomycin/Glutamine, G418 and FBS. At >80% confluency, aspirate the media from the flask and rinse with 10 mL Calcium/Magnesium-free PBS. […] To dislodge the cell, gently bang the side of the flask with your hand. Triturate the cells completely and then transfer the cells to 25 mL complete media. Centrifuge at 1,500 rpm for 6 min followed by resuspension in complete growth media and determine cell concentration. […] Under ideal growth conditions and appropriate tissue culture practices, this cell line is stable for 40-45 passages.
FluxOR Kit Components (Invitrogen F10017) • FluxOR™ Reagent (Component A) • FluxOR™ Assay Buffer (Component B)—10× Concentrate • PowerLoad™ Concentrate (Component C)—100× Concentrate • Probenecid (Component D)—Lyophilized sample is kept at −20° C. Water soluble, 100× after solubilization in 1 mL water. […] Store at 4° C. • Thallium sulfate (Tl2SO4) Concentrate (Component G)—50 mM in water. Store at 4° C. • DMSO (dimethyl sulfoxide, Component H)—1 mL (100%)
Can be stored at room temperature • Stimulant Buffer (prepared at 5× final concentration in 1× FluxOR™ Chloride-Free Buffer): 7.5 mM Thallium sulfate and 0.75 mM Potassium sulfate (to give a final assay concentration of 3 mM Thallium/0.3 mM Potassium). Store at 4° C. when not in use. If kept sterile, this solution is good for months.
Assay Protocol—The ROMK channel functional thallium flux assay is performed in 384 wells, using the FLIPR-Tetra instrument. HEK-hKir1.1 cells are seeded in Poly-D-Lysine microplates and kept in a 37° C.-10% CO2 incubator overnight. On the day of the experiment, the growth media is replaced with the FluxOR™ reagent loading buffer and incubated, protected from light, at ambient temperature (23-25° C.) for 90 min. The loading buffer is replaced with assay buffer±test compound followed by 30 min incubation at ambient temperature, where the Thallium/Potassium stimulant is added to the microplate.
Step Protocol • 1. Seed HEK-hKir1.1 cells (50 μl at 20,000 cells/well) in 384-well PDL coated Microplates • 2. Allow cells to adhere overnight in humidified 37° C./10% CO2 incubator • 3. Completely remove cell growth media from microplate and replace with 25 μl loading buffer • 4. Incubate Microplate at room temperature, protected form light, for 90 min • 5. Remove loading buffer and replace with 25 μl 1× Assay Buffer±test compound. • 6. Incubate microplate at room temperature, protected from light, for 30 min • 7. […] Excitation=400 nm, Emission=460 & 580 nm. Collect data for ˜10 min.
Data Calculation—The fluorescence intensity of wells containing 3 μM of a standard control ROMK inhibitor of the present invention is used to define the ROMK-sensitive component of thallium flux. Fluorescence in the presence of test compounds is normalized to control values to provide % fluorescence change.

hROMK (hKir1.1), sequence (P48048 whole entry): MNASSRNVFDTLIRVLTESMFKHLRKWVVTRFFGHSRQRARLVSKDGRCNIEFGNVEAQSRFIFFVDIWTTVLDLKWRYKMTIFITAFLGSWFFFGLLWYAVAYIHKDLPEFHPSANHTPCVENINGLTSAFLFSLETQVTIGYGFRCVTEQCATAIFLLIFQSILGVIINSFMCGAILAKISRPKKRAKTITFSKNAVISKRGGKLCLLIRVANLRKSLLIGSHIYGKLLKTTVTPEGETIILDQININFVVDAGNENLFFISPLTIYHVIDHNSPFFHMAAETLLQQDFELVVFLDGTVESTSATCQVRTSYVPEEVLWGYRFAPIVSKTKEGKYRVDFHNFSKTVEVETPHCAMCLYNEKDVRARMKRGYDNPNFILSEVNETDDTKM

Which IC50 does the source give for `O=C(C1CCc2cc(-n3cnnn3)ccc21)N1CCN2C[C@@H](c3cccc(-n4cnnn4)c3)OC[C@@H]2C1` (single isomer, unassigned) [Example 80] here?
Its IC50 is 130 nM.

For `COc1cc([C@@H]2CN3CCN(C(=O)Cc4ccc(-n5cnnn5)cc4)C[C@@H]3CO2)ccc1C#N` [Example 19, 2-methoxy-4-[(3R,9aR)-8-{[4-(1H-tetrazol-1-yl)phenyl]acetyl}octahydropyrazino[2,1-c][1,4]oxazin-3-yl]benzonitrile], which IC50 is on record?
The IC50 was 170 nM.

Which IC50 does the source give for `Cc1c([C@@H]2CN3CCN(C(=O)Cc4cccc(-n5cnnn5)c4)C[C@H]3CO2)ccc(F)c1C#N` [Example 47, 6-fluoro-2-methyl-3-[(3R,9aS)-8-{[3-(1H-tetrazol-1-yl)phenyl]acetyl}octahydropyrazino[2,1-c][1,4]oxazin-3-yl]benzonitrile] here?
The IC50 was 300 nM.

With `Cc1c([C@H]2CN3CCN(C(=O)Cc4cc(-n5cnnn5)ccc4F)C[C@@H]3CO2)ccc(F)c1C#N` [Example 58, 6-fluoro-3-[(3S,9aR)-8-{[2-fluoro-5-(1H-tetrazol-1-yl)phenyl]acetyl}octahydropyrazino[2,1-c][1,4]oxazin-3-yl]-2-methylbenzonitrile] as the compound, how does the IC50 read?
Its IC50 is 180 nM.

For `Cc1c([C@H]2CN3CCN(C(=O)CCc4cccc(-n5cnnn5)c4)C[C@H]3CO2)ccc2c1COC2=O` [Example 71, 4-methyl-5-[(3S,9aS)-8-{3-[3-(1H-tetrazol-1-yl)phenyl]propanoyl}octahydropyrazino[2,1-c][1,4]oxazin-3-yl]-2-benzofuran-1(3H)-one], which IC50 is on record?
Its IC50 is 490 nM.

For `Cc1c([C@H]2CN3CCN(C(=O)CCc4cccc(-n5cnnn5)c4)CC3CO2)ccc(F)c1C#N` (stereo in doubt) [Example 73, 6-fluoro-2-methyl-3-[(3S,9aS)-8-{3-[3-(1H-tetrazol-1-yl)phenyl]propanoyl}octahydropyrazino[2,1-c][1,4]oxazin-3-yl]benzonitrile], which IC50 is on record?
The IC50 was 140 nM.

For `Cc1c([C@@H]2CN3CCN(C(=O)CCc4cccc(-n5cnnn5)c4)C[C@H]3CO2)ccc(F)c1C#N` [Example 72, 6-fluoro-2-methyl-3-[(3R,9aS)-8-{3-[3-(1H-tetrazol-1-yl)phenyl]propanoyl}octahydropyrazino[2,1-c][1,4]oxazin-3-yl]benzonitrile], which IC50 is on record?
Its IC50 is 270 nM.

target: Kir1.1 (ROMK1) (Homo sapiens (Human), UniProt P48048); test: Electrophysiology Assay (whole cell voltage clamp, IonWorks Quattro); assay type: cell-based; conditions: Chinese hamster ovary cells stably expressing Kir1.1; block during voltage step to 0 mV; read-out: Electrophysiology IC50
Description: Chinese hamster ovary cells stably expressing Kir1.1 channels were maintained in T-75 flasks in cell culture media in a humidified 10% CO2 incubator at 37° C. Prior to an experiment, Kir1.1 expression was induced by overnight incubation with 1 mM sodium butyrate. […] After centrifugation, the cell pellet was resuspended in approximately 4.0 mL of bath solution and placed in the IonWorks instrument. The intracellular solution consisted of (in mM): 80 K gluconate, 40 KCl, 20 KF, 3.2 MgCl2, 3 EGTA, 5 Hepes, pH 7.4. Electrical access to the cytoplasm was achieved by perforation in 0.13 mg/mL amphotericin B for 4 min. […] Voltage protocols and current recordings were performed using the IonWorks HT software/hardware system. Currents were sampled at 1 kHz. No correction for liquid junction potentials was used. The test pulse, consisting of a 100 ms step to 0 mV from a holding potential of −70 mV, followed by a 100 ms voltage ramp from −70 mV to +70 mV, was applied before and after a 6 min compound incubation period. Test compounds were prepared by diluting DMSO stock solutions into the bath solution at 3× the final concentration and placed in the instrument in 96-well polypropylene plates. Current amplitudes were measured using the IonWorks software.

Kir1.1 (ROMK1), sequence (P48048 whole entry): as above

How did the IC50 turn out when `O=C(C1CCc2cc(-n3cnnn3)ccc21)N1CCN2C[C@@H](c3cccc(-n4cnnn4)c3)OC[C@@H]2C1` (single isomer, unassigned) [Example 80] was run?
Its IC50 is 280 nM.

How did the IC50 turn out when `Cc1c([C@@H]2CN3CCN(C(=O)Cc4cccc(-n5cnnn5)c4)C[C@H]3CO2)ccc(F)c1C#N` [Example 47, 6-fluoro-2-methyl-3-[(3R,9aS)-8-{[3-(1H-tetrazol-1-yl)phenyl]acetyl}octahydropyrazino[2,1-c][1,4]oxazin-3-yl]benzonitrile] was run?
The IC50 was 90 nM.

How did the IC50 turn out when `Cc1c([C@H]2CN3CCN(C(=O)Cc4cc(-n5cnnn5)ccc4F)C[C@@H]3CO2)ccc(F)c1C#N` [Example 58, 6-fluoro-3-[(3S,9aR)-8-{[2-fluoro-5-(1H-tetrazol-1-yl)phenyl]acetyl}octahydropyrazino[2,1-c][1,4]oxazin-3-yl]-2-methylbenzonitrile] was run?
Its IC50 is 80 nM.

`N#Cc1cc([C@H]2CN3CCN(C(=O)C4CCc5cc(-n6cnnn6)ccc54)C[C@H]3CO2)ccc1F` (stereo partly drawn) [Example 3, 2-fluoro-5-[(3S,9aS)-8-{[5-(1H-tetrazol-1-yl)-2,3-dihydro-1H-inden-1-yl]carbonyl}octahydropyrazino[2,1-c][1,4]oxazin-3-yl]benzonitrile] was tested. Which IC50 did it give?
The IC50 was 180 nM.

With `COc1cc(CC(=O)N2CCN3C[C@H](c4ccc5c(c4C)COC5=O)OC[C@@H]3C2)c(F)cc1C#N` [Example 16, 5-fluoro-2-methoxy-4-{2-[(3S,9aS)-3-(4-methyl-1-oxo-1,3-dihydro-2-benzofuran-5-yl)hexahydropyrazino[2,1-c][1,4]oxazin-8(1H)-yl]-2-oxoethyl}benzonitrile] as the compound, how does the IC50 read?
The IC50 was 180 nM.

For `COc1cc(CC(=O)N2CCN3C[C@@H](c4ccc5c(c4C)COC5=O)OC[C@@H]3C2)c(F)cc1C#N` [Example 17, 5-fluoro-2-methoxy-4-{2-[(3R,9aS)-3-(4-methyl-1-oxo-1,3-dihydro-2-benzofuran-5-yl)hexahydropyrazino[2,1-c][1,4]oxazin-8(1H)-yl]-2-oxoethyl}benzonitrile], which IC50 is on record?
Its IC50 is 160 nM.

For `O=C1OCc2cc([C@@H]3CN4CCN(C(=O)Cc5ccc(-n6cnnn6)cc5)C[C@H]4CO3)ccc21` [Example 8, 5-[(3R,9aS)-8-{[4-(1H-tetrazol-1-yl)phenyl]acetyl}octahydropyrazino[2,1-c][1,4]oxazin-3-yl]-2-benzofuran-1(3H)-one], which IC50 is on record?
The IC50 was 140 nM.

`O=C1OCc2cc([C@H]3CN4CCN(C(=O)Cc5ccc(-n6cnnn6)cc5)C[C@H]4CO3)ccc21` [Example 7, 5-[(3S,9aS)-8-{[4-(1H-tetrazol-1-yl)phenyl]acetyl}octahydropyrazino[2,1-c][1,4]oxazin-3-yl]-2-benzofuran-1(3H)-one] was tested. Which IC50 did it give?
Its IC50 is 170 nM.

How did the IC50 turn out when `O=C1OCc2cc([C@@H]3CN4CCN(C(=O)C5CCc6cc(-n7cnnn7)ccc65)C[C@H]4CO3)ccc21` (stereo partly drawn) [Example 12, 5-[(3R,9aS)-8-{[5-(1H-tetrazol-1-yl)-2,3-dihydro-1H-inden-1-yl]carbonyl}octahydropyrazino[2,1-c][1,4]oxazin-3-yl]-2-benzofuran-1(3H)-one] was run?
Its IC50 is 250 nM.

Which IC50 does the source give for `COc1cc(CC(=O)N2CCN3C[C@H](c4ccc5c(c4)COC5=O)OC[C@@H]3C2)c(F)cc1C#N` [Example 9, 5-fluoro-2-methoxy-4-{2-oxo-2-[(3S,9aS)-3-(1-oxo-1,3-dihydro-2-benzofuran-5-yl)hexahydropyrazino[2,1-c][1,4]oxazin-8(1H)-yl]ethyl}benzonitrile] here?
The IC50 was 140 nM.

For `N#Cc1cc([C@@H]2CN3CCN(C(=O)C4CCc5cc(-n6cnnn6)ccc54)C[C@H]3CO2)ccc1F` (stereo partly drawn) [Example 4, 2-fluoro-5-[(3R,9aS)-8-{[5-(1H-tetrazol-1-yl)-2,3-dihydro-1H-inden-1-yl]carbonyl}octahydropyrazino[2,1-c][1,4]oxazin-3-yl]benzonitrile], which IC50 is on record?
The IC50 was 190 nM.

With `Cc1c([C@H]2CN3CCN(C(=O)C4Cc5ccc(-n6cnnn6)cc5C4)C[C@H]3CO2)ccc(F)c1C#N` (stereo partly drawn) [Example 74, 6-fluoro-2-methyl-3-[(3S,9aS)-8-{[5-(1H-tetrazol-1-yl)-2,3-dihydro-1H-inden-2-yl]carbonyl}octahydropyrazino[2,1-c][1,4]oxazin-3-yl]benzonitrile] as the compound, how does the IC50 read?
Its IC50 is 160 nM.

Which IC50 does the source give for `O=C1OCc2cc([C@H]3CN4CCN(C(=O)C5CCc6cc(-n7cnnn7)ccc65)C[C@H]4CO3)ccc21` (stereo partly drawn) [Example 11, 5-[(3S,9aS)-8-{[5-(1H-tetrazol-1-yl)-2,3-dihydro-1H-inden-1-yl]carbonyl}octahydropyrazino[2,1-c][1,4]oxazin-3-yl]-2-benzofuran-1(3H)-one] here?
The IC50 was 340 nM.

same assay, conditions: Electrophysiology IC50, Chinese hamster ovary cells stably expressing Kir1.1; block during voltage step to 0 mV

Which IC50 does the source give for `COc1cc([C@@H]2CN3CCN(C(=O)Cc4ccc(-n5cnnn5)cc4)C[C@@H]3CO2)ccc1C#N` [Example 19, 2-methoxy-4-[(3R,9aR)-8-{[4-(1H-tetrazol-1-yl)phenyl]acetyl}octahydropyrazino[2,1-c][1,4]oxazin-3-yl]benzonitrile] here?
Its IC50 is 70 nM.

With `COc1cc(CC(=O)N2CCN3C[C@@H](c4ccc(F)c(C#N)c4)OC[C@@H]3C2)ccc1C#N` [Example 6] as the compound, how does the IC50 read?
Its IC50 is 160 nM.

How did the IC50 turn out when `Cc1c([C@H]2CN3CCN(C(=O)Cc4ccc(-n5cnnn5)cc4)C[C@H]3CO2)ccc2c1COC2=O` [Example 1B, 4-methyl-5-[(3S,9aS)-8-{[4-(1H-tetrazol-1-yl)phenyl]acetyl}octahydropyrazino[2,1-c][1,4]oxazin-3-yl]-2-benzofuran-1(3H)-one] was run?
Its IC50 is 330 nM.

How did the IC50 turn out when `N#Cc1cc([C@@H]2CN3CCN(C(=O)Cc4cc(F)c(C#N)cc4F)C[C@H]3CO2)ccc1F` [Example 5, 4-{2-[(3R,9aS)-3-(3-cyano-4-fluorophenyl)hexahydropyrazino[2,1-c][1,4]oxazin-8(1H)-yl]-2-oxoethyl}-2,5-difluorobenzonitrile] was run?
Its IC50 is 120 nM.
